The numbers were not newly measured in patent publication US9278086B2, “Combination therapy and uses thereof for treatment and prevention of parasitic infection and disease” (The Royal Institution for the Advancement of …, priority 2010, dated 2016), which cites them from elsewhere.

SMILES strings stand for the structures.

The conditions of the data set: humans, oral dose 1475 mg Cys bitartrate (500 mg cysteamine base), cited from earlier work.

Consider `NCCS` [Cys bitartrate, cysteamine bitartrate], for which, under “read-out: peak plasma concentration (Cmax)”, the Cmax was 39 µM.

For `NCCS.O=C(O)C(O)C(O)C(=O)O` (centres unmarked) [Cys bitartrate, cysteamine bitartrate], the AUCT0-Tlast is 3613 min.
